Our source for the CC50 and IC50 values is ChEMBL document CHEMBL1132681, “Inhibition of human cytomegalovirus protease by enedione derivatives of thieno[2,3-d]oxazinones through a novel dual acylation/alkylation mechanism” (Bioorg Med Chem Lett, 1999).

For assay [1], the system named is MRC5. Nature of the assay: Compound was tested for cytotoxicity in MRC-5 cells using XTT assay. The class given is functional. The note with it: Homo sapiens, read-out: TC50 (the source's name). On the technique in general: Tetrazolium dyes change colour on reduction, which living cells bring about.
The target of assay [2] is T1, Capsid scaffolding protein (Human herpesvirus 2 (strain HG52) (HHV-2) (Human herpes simplex virus2), UniProt P89449).
T1 sequence (P89449 whole entry): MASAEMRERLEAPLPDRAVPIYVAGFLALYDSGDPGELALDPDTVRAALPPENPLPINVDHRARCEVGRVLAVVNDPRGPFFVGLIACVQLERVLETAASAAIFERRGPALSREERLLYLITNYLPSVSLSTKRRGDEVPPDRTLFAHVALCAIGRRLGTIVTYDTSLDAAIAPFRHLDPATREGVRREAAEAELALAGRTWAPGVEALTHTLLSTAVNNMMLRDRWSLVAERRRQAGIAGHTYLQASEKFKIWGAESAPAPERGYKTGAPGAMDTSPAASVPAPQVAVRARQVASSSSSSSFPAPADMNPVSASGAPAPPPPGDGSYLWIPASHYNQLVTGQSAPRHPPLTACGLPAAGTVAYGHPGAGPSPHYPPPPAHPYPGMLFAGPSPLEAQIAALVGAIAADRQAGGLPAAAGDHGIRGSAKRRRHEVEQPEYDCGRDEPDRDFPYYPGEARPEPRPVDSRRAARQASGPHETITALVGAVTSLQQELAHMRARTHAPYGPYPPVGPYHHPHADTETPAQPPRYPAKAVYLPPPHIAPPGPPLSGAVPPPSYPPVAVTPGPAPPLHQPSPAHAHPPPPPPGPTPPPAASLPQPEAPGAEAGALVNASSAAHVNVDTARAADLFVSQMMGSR
Nature of the assay: Inhibitory activity against herpes simplex virus protease (HSV-2). It is filed as functional, Human alphaherpesvirus 2.

Assay [3] deals with T2, Capsid scaffolding protein (Human cytomegalovirus (strain AD169) (HHV-5) (Human herpesvirus 5), UniProt P16753).
T2 sequence (P16753 whole entry): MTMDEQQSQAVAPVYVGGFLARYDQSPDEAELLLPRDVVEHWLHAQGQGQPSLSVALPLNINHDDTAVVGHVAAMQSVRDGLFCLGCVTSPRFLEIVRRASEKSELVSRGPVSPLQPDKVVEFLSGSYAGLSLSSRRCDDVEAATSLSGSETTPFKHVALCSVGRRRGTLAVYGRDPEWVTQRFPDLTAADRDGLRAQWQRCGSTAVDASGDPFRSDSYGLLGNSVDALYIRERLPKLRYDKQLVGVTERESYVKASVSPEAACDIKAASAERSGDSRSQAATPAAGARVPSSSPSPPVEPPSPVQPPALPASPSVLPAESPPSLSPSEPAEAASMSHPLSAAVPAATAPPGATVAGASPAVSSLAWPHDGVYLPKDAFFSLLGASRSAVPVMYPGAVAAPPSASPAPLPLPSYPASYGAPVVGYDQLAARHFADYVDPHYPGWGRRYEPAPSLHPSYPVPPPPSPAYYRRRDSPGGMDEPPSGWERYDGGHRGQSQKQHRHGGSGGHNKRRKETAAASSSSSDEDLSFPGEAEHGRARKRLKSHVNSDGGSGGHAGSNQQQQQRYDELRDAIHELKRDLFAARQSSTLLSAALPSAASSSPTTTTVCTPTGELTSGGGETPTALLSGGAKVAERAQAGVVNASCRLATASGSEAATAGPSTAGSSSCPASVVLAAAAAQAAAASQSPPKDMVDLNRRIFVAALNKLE
The assay is described as follows: Inhibitory activity against cytomegalovirus protease (CMV). The class given is functional.

As to `CC(=O)/C=C/C(=O)N[C@@H](C)c1nc2scc(C)c2c(=O)o1`, the CC50 in assay [1] worked out at 11 µM. Besides, the figures for the 50% inhibitory concentration (IC50) in assay [2] and in assay [3] were 790 nM and 370 nM, respectively.
For the compound `Cc1csc2nc([C@H](C)NC(=O)CCC(=O)c3cccs3)oc(=O)c12`, the values for the IC50 in assay [2] and in assay [3] were 4700 nM and 19000 nM, respectively.
The corresponding values for `Cc1csc2nc([C@H](C)NC(=O)/C=C/C(=O)c3ccc(Cl)cc3)oc(=O)c12` are 15000 nM and 60 nM.
The corresponding values for `COc1cccc(C(=O)/C=C/C(=O)N[C@@H](C)c2nc3scc(C)c3c(=O)o2)c1` are 680 nM and 29 nM.
The corresponding values for `CCOc1ccc(C(=O)/C=C/C(=O)N[C@@H](C)c2nc3scc(C)c3c(=O)o2)cc1` are 16000 nM and 260 nM.
On to `Cc1csc2nc([C@H](C)NC(=O)/C=C/C(=O)c3cccc(C#N)c3)oc(=O)c12`, for which the results for the IC50 in assay [2] and in assay [3] were 2000 nM and 41 nM, respectively.
Take `Cc1csc2nc([C@H](C)NC(=O)/C=C/C(=O)c3ccccc3)oc(=O)c12`: in assay [1], the CC50 was 14 µM. Also, the IC50 – broadly, the concentration that gives 50% inhibition – was 2700 nM in assay [2] and 30 nM in assay [3].
Consider `Cc1csc2nc([C@H](C)NC(=O)/C=C/C(=O)c3cccc([N+](=O)[O-])c3)oc(=O)c12`, for which the 50% inhibitory concentration (IC50) in assay [2] worked out at 3000 nM; in assay [3], 31 nM.
Take `Cc1csc2nc([C@H](C)NC(=O)/C=C/C(=O)c3cccs3)oc(=O)c12`: the CC50 in assay [1] came to 2 µM. Besides, the concentration for half-maximal inhibition (IC50) in assay [2] came out at 4600 nM; in assay [3], 29 nM.
In the case of `Cc1csc2nc([C@H](C)NC(=O)/C=C/C(=O)Nc3ccccc3)oc(=O)c12`, the IC50 in assay [2] was found to be 2600 nM; in assay [3], 2300 nM.
With `Cc1csc2nc([C@H](C)NC(=O)CCC(=O)c3ccccc3)oc(=O)c12`, the IC50 in assay [2] came out at 12000 nM; in assay [3], 21000 nM.
In the same order, the values of `Cc1csc2nc([C@H](C)NC(=O)/C=C/C(=O)c3ccccc3[N+](=O)[O-])oc(=O)c12` are 2200 nM and 14 nM.
